From patent US10273243B2, “4-phenylpiperidines, their preparation and use” (The Trustees of Columbia University in the City of New York, priority 2013, dated 2019) come the findings set out here.

The term melting point denotes the temperature of the solid-liquid transition.

The structures appear in SMILES notation.

As to `CCC(=O)N1Cc2[nH]nc(C(=O)N3CCC(c4ccccc4C(F)(F)F)CC3)c2C1` [Example 53, 1-(3-(4-(2-(Trifluoromethyl)phenyl)piperidine-1-carbonyl)pyrrolo[3,4-c]pyrazol-5(1H,4H,6H)-yl)propan-1-one], the melting point is 216 to 219 °C. `CC(C)C(=O)N1Cc2[nH]nc(C(=O)N3CCC(c4ccccc4C(F)(F)F)CC3)c2C1` [Example 54] registered a melting point of 192 to 195 °C. `CC(C)CC(=O)N1Cc2[nH]nc(C(=O)N3CCC(c4ccccc4C(F)(F)F)CC3)c2C1` [Example 55, 3-Methyl-1-(3-(4-(2-(trifluoromethyl)phenyl)piperidine-1-carbonyl)pyrrolo[3,4-c]pyrazol-5(1H,4H,6H)-yl)butan-1-one]: the melting point is 200 to 203 °C.

Take `CC(C)(C)C(=O)N1Cc2[nH]nc(C(=O)N3CCC(c4ccccc4C(F)(F)F)CC3)c2C1` [Example 56, 2,2-Dimethyl-1-(3-(4-(2-(trifluoromethyl)phenyl)piperidine-1-carbonyl)pyrrolo[3,4-c]pyrazol-5(1H,4H,6H)-yl)propan-1-one]: the melting point lay within 229 to 232 °C. Molecule `Cc1cnc2cc(C(=O)N3CCC(c4ccccc4C(F)(F)F)CC3)[nH]c2c1` [Example 70, (6-Methyl-1H-pyrrolo[3,2-b]pyridin-2-yl)(4-(2-(trifluoromethyl)phenyl)piperidin-1-yl)methanone] came in with a melting point of 254 to 258 °C.

For `O=C(c1nc2ncccc2[nH]1)N1CCC(c2ccccc2C(F)(F)F)CC1` [Example 71, (1H-Imidazo[4,5-b]pyridin-2-yl)(4-(2-(trifluoromethyl)phenyl)piperidin-1-yl)methanone], the melting point fell in the range of 249 to 251 °C. Consider `Cn1c(C(=O)N2CCC(c3ccccc3C(F)(F)F)CC2)cc2ncccc21` [Example 74, (1-Methyl-1H-pyrrolo[3,2-b]pyridin-2-yl)(4-(2-(trifluoromethyl)phenyl)piperidin-1-yl)methanone], for which the melting point was in the range of 159 to 163 °C. The figure for `O=C(c1cc2ncc(-n3ccnc3)cc2[nH]1)N1CCC(c2ccccc2C(F)(F)F)CC1` [Example 75, (6-(1H-Imidazol-1-yl)-1H-pyrrolo[3,2-b]pyridin-2-yl)(4-(2-(trifluoromethyl)phenyl)piperidin-1-yl)methanone] is > 270 °C; for `O=C(c1cc2ncc(N3CCOCC3)cc2[nH]1)N1CCC(c2ccccc2C(F)(F)F)CC1` [Example 76, (6-Morpholino-1H-pyrrolo[3,2-b]pyridin-2-yl)(4-(2-(trifluoromethyl)phenyl)piperidin-1-yl)methanone] it is 268 to 272 °C (dec.). The figure for `O=C(c1cc2ncc(Cl)cc2[nH]1)N1CCC(c2ccccc2C(F)(F)F)CC1` [Example 77, (6-Chloro-1H-pyrrolo[3,2-b]pyridin-2-yl)(4-(2-(trifluoromethyl)phenyl)piperidin-1-yl)methanone] is 258 to 261 °C; for `O=C(c1ccnnc1)N1CCC(c2ccccc2C(F)(F)F)CC1` [Example 80, Pyridazin-4-yl(4-(2-(trifluoromethyl)phenyl)piperidin-1-yl)methanone] it is 159 to 162 °C; for `O=C(c1ccc2nccn2n1)N1CCC(c2ccccc2C(F)(F)F)CC1` [Example 81, Imidazo[1,2-b]pyridazin-6-yl(4-(2-(trifluoromethyl)phenyl)piperidin-1-yl)methanone] it is 152 to 155 °C. Consider `O=C(c1cccnn1)N1CCC(c2ccccc2C(F)(F)F)CC1` [Example 82, Pyridazin-3-yl(4-(2-(trifluoromethyl)phenyl)piperidin-1-yl)methanone], for which the melting point fell in the range of 125 to 127 °C. Take `O=C(c1ccc(Cl)nn1)N1CCC(c2ccccc2C(F)(F)F)CC1` [Example 83, (6-Chloropyridazin-3-yl)(4-(2-(trifluoromethyl)phenyl)piperidin-1-yl)methanone]: the melting point fell in the range of 170 to 172 °C. The figure for `Cc1nnsc1C(=O)N1CCC(c2ccccc2C(F)(F)F)CC1` [Example 84, (4-Methyl-1,2,3-thiadiazol-5-yl)(4-(2-(trifluoromethyl)phenyl)piperidin-1-yl)methanone] is 141 to 143 °C; for `Cc1ccc(C(=O)N2CCC(c3ccccc3C(F)(F)F)CC2)nn1` [Example 85, (6-Methylpyridazin-3-yl)(4-(2-(trifluoromethyl)phenyl)piperidin-1-yl)methanone] it is 144 to 148 °C. `COc1ccc(C(=O)N2CCC(c3ccccc3C(F)(F)F)CC2)nn1` [Example 86, (6-Methoxypyridazin-3-yl)(4-(2-(trifluoromethyl)phenyl)piperidin-1-yl)methanone] came in with a melting point of 122 to 125 °C. `O=C(c1cnccn1)N1CCC(c2ccccc2C(F)(F)F)CC1` [Example 87, Pyrazin-2-yl(4-(2-(trifluoromethyl)phenyl)piperidin-1-yl)methanone]: the melting point is 109 to 111 °C. In the case of `O=C(c1cnn[nH]1)N1CCC(c2ccccc2C(F)(F)F)CC1` [Example 88, (1H-1,2,3-Triazol-5-yl)(4-(2-(trifluoromethyl)phenyl)piperidin-1-yl)methanone] it was 235 to 239 °C (dec.); in that of `Cc1nc2ccc(Cl)nn2c1C(=O)N1CCC(c2ccccc2C(F)(F)F)CC1` [Example 89, (6-Chloro-2-methylimidazol[1,2-b]pyridazin-3-yl)(4-(2-(trifluoromethyl)phenyl)piperidin-1-yl)methanone], 147 to 150 °C. As to `O=C(c1ccn[nH]1)N1CCC(c2ccccc2C(F)(F)F)CC1` [Example 90, (1H-pyrazol-5-yl)(4-(2-(trifluoromethyl)phenyl)piperidin-1-yl)methanone], the melting point fell in the range of 167 to 170 °C. The figure for `NC(=O)c1ccc(C(=O)N2CCC(c3ccccc3C(F)(F)F)CC2)cc1` [Example 92, 4-(4-(2-(Trifluoromethyl)phenyl)piperidine-1-carbonyl)benzamide] is 188 to 190 °C; for `NC(=O)c1cccc(C(=O)N2CCC(c3ccccc3C(F)(F)F)CC2)c1` [Example 93, 3-(4-(2-(Trifluoromethyl)phenyl)piperidine-1-carbonyl)benzamide] it is 192 to 194 °C. In the case of `CC(=O)N1CCCC1C(=O)N1CCC(c2ccccc2C(C)(C)C)CC1` (stereo not drawn) [Example 97, 1-(2-(4-(2-(Tert-butyl)phenyl)piperidine-1-carbonyl)pyrrolidin-1-yl)ethanone] it was 50 to 60 °C; in that of `CC(C)(C)c1ccccc1C1CCN(C(=O)[C@H]2C[C@@H](O)CN2)CC1` [Example 98, (4-(2-(Tert-butyl)phenyl)piperidin-1-yl)((2R,4R)-4-hydroxypyrrolidin-2-yl)methanone], 65 to 75 °C; in that of `CC(C)(C)c1ccccc1C1CCN(C(=O)C2CCCS2(=O)=O)CC1` (stereo not drawn) [Example 100, (4-(2-(tert-butyl)phenyl)piperidin-1-yl)(1,1-dioxidotetrahydrothiophen-2-yl)methanone], 80 to 84 °C.

`NS(=O)(=O)Oc1ccccc1CC(=O)N1CCC(c2ccccc2C(F)(F)F)CC1` [Example 102, 2-(2-Oxo-2-(4-(2-(trifluoromethyl)phenyl)piperidin-1-yl)ethyl)phenylsulfamate]: the melting point fell in the range of 170 to 173 °C.
